Test results: paper PMC5196007 (Journal of pharmaceutical and biomedical analysis, 2016)
Like-named read-outs stand apart in the source and are kept apart here.

Columns and labels:
[1] = Stability of analytes in whole blood samples; type: in vitro ADME, rat; details: n = 6
[2] = Pharmacokinetic study with co-administration of cocaine and alcohol in rats; type: in vivo, Male Sprague–Darley rats; details: 60 mg/kg cocaine IP, 30 min after 1 g/kg alcohol or saline IP, both groups
[3] = tested on: butyrylcholinesterase (BChE) and liver carboxyesterase-2 (CE-2); details: in humans; cited from earlier work
[4] = tested on: CE-1; details: with alcohol co-administration, cited from earlier work
[5] = Bench top (4 hours, room temperature), high concentration 190–320 ng/ml (1 µM)
[6] = Bench top (4 hours, room temperature), low concentration 1.9–3.2 ng/ml (0.01 µM)
[7] = Bench top (4 hours, room temperature), medium concentration 95–160 ng/ml (0.5 µM)
[8] = Freeze-thaw (4 cycles), high concentration 190–320 ng/ml (1 µM)
[9] = Freeze-thaw (4 cycles), low concentration 1.9–3.2 ng/ml (0.01 µM)
[10] = Freeze-thaw (4 cycles), medium concentration 95–160 ng/ml (0.5 µM)
[11] = Long-term (−70°C, 4 months), high concentration 190–320 ng/ml (1 µM)
[12] = Long-term (−70°C, 4 months), low concentration 1.9–3.2 ng/ml (0.01 µM)
[13] = Long-term (−70°C, 4 months), medium concentration 95–160 ng/ml (0.5 µM)

Structure (SMILES)	Stability Bias (%) [1, 5] [%]	Stability Bias (%) [1, 6] [%]	Stability Bias (%) [1, 7] [%]	Stability Bias (%) [1, 8] [%]	Stability Bias (%) [1, 9] [%]	Stability Bias (%) [1, 10] [%]	Stability Bias (%) [1, 11] [%]	Stability Bias (%) [1, 12] [%]	Stability Bias (%) [1, 13] [%]	highest blood concentration [2]	time of highest blood concentration after the injection of cocaine [2] [min]	fraction of cocaine hydrolyzed to ecgonine methyl ester (EME) [3]	fraction of cocaine converted to cocaethylene through transesterification ([4]; intravenous cocaine)	fraction of cocaine converted to cocaethylene through transesterification ([4]; oral cocaine)	fraction of cocaine converted to cocaethylene through transesterification ([4]; smoked cocaine)
CN1[C@H]2CC[C@@H]1[C@@H](C(=O)O)[C@@H](OC(=O)c1ccccc1)C2 [BE, benzoylecgonine]	1.7	−0.5	0.7	3.4	−0.9	5.5	3.8	−1.4	2.2	–	–	–	–	–	–
COC(=O)[C@H]1[C@@H](OC(=O)c2ccccc2)C[C@@H]2CC[C@H]1N2C [Cocaine]	−6.7	2.3	0.3	−4.7	2.8	−0.7	−3.1	−0.4	3.1	~ 2400 ng/ml	20	approximately 40%	~ 24%	~ 34%	~ 18%
CCOC(=O)[C@H]1[C@@H](O)C[C@@H]2CC[C@H]1N2 [NEEE, norecgonine ethyl ester]	3.7	1.4	2.4	6.5	1.2	3.3	−11.9	−1.3	−0.2	–	–	–	–	–	–
CCOC(=O)[C@@H]1[C@H]2CC[C@@H](C[C@@H]1O)N2C [EEE, ecgonine ethyl ester]	6.8	1.2	−4.4	9.4	−3.2	−9.3	−5.2	−2.2	−5.2	–	–	–	–	–	–
COC(=O)[C@@H]1[C@H]2CC[C@@H](C[C@@H]1O)N2C [EME, ecgonine methyl ester]	0.3	−9.6	5.9	4.0	2.1	4.2	3.5	−3.1	6.3	–	–	–	–	–	–
COC(=O)[C@H]1[C@@H](OC(=O)c2ccccc2)C[C@@H]2CC[C@H]1N2 [Norcocaine, norcocaine]	0.6	−1.1	3.5	−1.2	−1.0	−0.2	−1.4	−2.9	2.2	–	–	–	–	–	–
CCOC(=O)[C@@H]1C2CCC(C[C@@H]1OC(=O)c1ccccc1)N2C (stereo partly drawn) [Cocaethylene, cocaethylene]	0.2	1.7	−2.1	−4.1	0.7	−3.7	−0.6	3.7	−1.8	–	–	–	–	–	–
CCOC(=O)[C@H]1[C@@H](OC(=O)c2ccccc2)C[C@@H]2CC[C@H]1N2 [Norcocaethylene, norcocaethylene]	−2.2	−0.2	−0.9	−6.4	0.1	−4.4	2.8	−1.0	−1.3	–	–	–	–	–	–
COC(=O)[C@H]1[C@@H](O)C[C@@H]2CC[C@H]1N2 [NEME, norecgonine methyl ester]	−2.2	−14.3	−1.5	0.1	−12.8	−5.4	−8.7	−13.0	−1.7	–	–	–	–	–	–
